Results: patent US10206907B2, “Compounds useful for the treatment of degenerative and inflammatory diseases” (GALAPAGOS NV, priority 2008, dated 2019)

Legend:
[1] = target: Recombinant human JAK1 catalytic domain (Homo sapiens (Human), UniProt P23458); assay: JAK1 inhibition assay; format: biochemical; settings: semi-quantitative score
Summary of the method: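 IC50 values come from dose-response series, with each point expressed as percent inhibition of cpm. Vehicle sets full activity and 10 μM staurosporine sets background. Incorporated radioactivity counted by scintillation after washing with 75 mM phosphoric acid.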

[2] = target: Recombinant human JAK2 catalytic domain (Homo sapiens (Human), UniProt O60674); assay: JAK2 inhibition assay; format: biochemical; settings: semi-quantitative score
Summary of the method: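 Activity was taken as vehicle cpm minus cpm with 10 μM staurosporine, and inhibition was expressed on that scale. Incubation was 90 min at 30 °C, followed by acid quench, phosphoric acid washes and Microscint counting. Compounds were tested as dose series to obtain IC50.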

[3] = target: Recombinant human JAK3 catalytic domain (Homo sapiens (Human), UniProt P52333); assay: JAK3 inhibition assay; format: biochemical; settings: semi-quantitative score
[4] = test system: JAK-STAT signalling in HeLa cells; assay: JAK-STAT signalling assay (OSM-triggered pSTAT1(2)-luciferase reporter in HeLa cells); format: cell-based; settings: Homo sapiens; HeLa cells, OSM-triggered pSTAT1(2)-luciferase reporter; read-out: STAT signalling EC50
Summary of the method: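 Read-out is oncostatin M–driven pSTAT1(2)-luciferase activity, corrected by co-transfected LacZ β-galactosidase, in transiently transfected HeLa cells cultured overnight at 37 °C, 10% CO2. Inhibition percentages against positive and negative controls were plotted across doses to derive EC50.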

MMP13 in SW1353 cells = assay: OSM/IL-1β signaling assay (MMP13 levels in SW1353 cells); format: cell-based; settings: Homo sapiens; SW1353 cells, OSM and IL-1β triggered, MMP13 levels 48 hours after triggering; read-out: MMP13 EC50;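 also: secreted MMP13 captured by antibody, activated with APMA and its activity read by fluorescence, inhibition scaled between vehicle-treated triggered wells (0%) and untriggered wells (100%)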
TNF-alpha release = assay: Septic shock model (LPS-induced TNF release); format: in vivo, mouse; settings: 30 mg/kg po, BALB/cJ mice, LPS ip; statistically significant
Method: Injection of lipopolysaccharide (LPS) induces a rapid release of soluble tumour necrosis factor (TNF-alpha) into the periphery. This model is used to analyse prospective blockers of TNF release in vivo.
Six BALB/cJ female mice (20 g) per group were treated at the intended dosing once, po. Thirty minutes later, LPS (15 μg/kg; E. Coli serotype 0111:B4) was injected ip. Ninety minutes later, mice were euthanized and blood was collected. Circulating TNF alpha levels were determined using commercially available ELISA kits. Dexamethasone (5 μg/kg) was used as a reference anti-inflammatory compound. Selected compounds are tested at one or multiple doses, e.g. 3 and/or 10 and/or 30 mg/kg, po.

[5] = Microsomal stability, human liver microsomes; format: in vitro ADME; settings: percentage of compound remaining after 60 minutes, 3 μM compound
Summary of the method: (§1)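 Percent parent remaining after 60 min was determined by LCMS against a time-zero sample quenched before microsome addition. Incubations ran at 37°C with liver microsomes and a G6PDH-based NADPH-regenerating cofactor mix. Quench was MeOH or ACN (1:1).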

[6] = Microsomal stability, rat liver microsomes; format: in vitro ADME; settings: percentage of compound remaining after 60 minutes, 3 μM compound
Summary of the method: as §1

[7] = Caco2 permeability (bi-directional); format: in vitro ADME, human; settings: human, pH 7.4; for Papp A→B at 1 h, 10 µM: Caco-2, apical to basolateral, read-out: Papp (A2B); for efflux ratio at 1 h, 10 µM: Caco-2, ratio of PappB>A/PappA>B
Summary of the method: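 Compound concentrations in both chambers were measured by LC-MS/MS after 1 h incubation at 37 °C on an orbital shaker. Efflux ratio is PappB>A over PappA>B. Lucifer Yellow (50 μM in donor) confirmed layer integrity, with permeability of ≤100 nm/s required.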

[8] = target: Recombinant human TYK2 catalytic domain (Homo sapiens (Human), UniProt P29597); assay: TYK2 inhibition assay; format: biochemical; settings: semi-quantitative score
Method: After 90 min at 30° C., reactions were stopped by adding of 25 μL/well of 150 mM phosphoric acid. […] Plates were washed 6 times with 300 μL per well of a 75 mM phosphoric acid solution and the bottom of the plates was sealed. 40 μL/well of Microscint-20 was added, the top of the plates was sealed and readout was performed using the Topcount (Perkin Elmer). Kinase activity was calculated by subtracting counts per minute (cpm) obtained in the presence of a positive control inhibitor (10 μM staurosporine) from cpm obtained in the presence of vehicle. The ability of a test compound to inhibit this activity was determined as: Percentage inhibition=((cpm determined for sample with test compound present−cpm determined for sample with positive control inhibitor) divided by (cpm determined in the presence of vehicle−cpm determined for sample with positive control inhibitor))*100%.
Dose dilution series were prepared for the compounds enabling the testing of dose-response effects in the TYK2 assay and the calculation of the IC50 for each compound.

Chain of Recombinant human JAK3 catalytic domain (P52333 781-1124): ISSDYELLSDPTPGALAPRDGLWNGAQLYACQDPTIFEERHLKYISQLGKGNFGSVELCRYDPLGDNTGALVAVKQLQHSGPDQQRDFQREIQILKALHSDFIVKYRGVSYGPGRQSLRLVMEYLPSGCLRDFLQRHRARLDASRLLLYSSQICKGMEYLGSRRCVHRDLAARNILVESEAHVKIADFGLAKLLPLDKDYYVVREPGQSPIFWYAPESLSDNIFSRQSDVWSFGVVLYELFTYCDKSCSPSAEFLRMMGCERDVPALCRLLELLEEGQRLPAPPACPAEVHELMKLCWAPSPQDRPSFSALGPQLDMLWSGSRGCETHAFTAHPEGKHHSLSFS
Chain of Recombinant human JAK1 catalytic domain (P23458 850-1154): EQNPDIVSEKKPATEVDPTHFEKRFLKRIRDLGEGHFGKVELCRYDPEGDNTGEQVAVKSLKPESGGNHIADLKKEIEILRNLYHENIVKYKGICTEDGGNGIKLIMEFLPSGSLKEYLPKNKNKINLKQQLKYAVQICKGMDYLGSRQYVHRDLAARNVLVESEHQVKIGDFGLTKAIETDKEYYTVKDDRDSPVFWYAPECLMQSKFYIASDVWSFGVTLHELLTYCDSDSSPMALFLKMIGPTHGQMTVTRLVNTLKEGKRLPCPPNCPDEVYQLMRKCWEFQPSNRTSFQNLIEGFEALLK
Chain of Recombinant human JAK2 catalytic domain (O60674 808-1132): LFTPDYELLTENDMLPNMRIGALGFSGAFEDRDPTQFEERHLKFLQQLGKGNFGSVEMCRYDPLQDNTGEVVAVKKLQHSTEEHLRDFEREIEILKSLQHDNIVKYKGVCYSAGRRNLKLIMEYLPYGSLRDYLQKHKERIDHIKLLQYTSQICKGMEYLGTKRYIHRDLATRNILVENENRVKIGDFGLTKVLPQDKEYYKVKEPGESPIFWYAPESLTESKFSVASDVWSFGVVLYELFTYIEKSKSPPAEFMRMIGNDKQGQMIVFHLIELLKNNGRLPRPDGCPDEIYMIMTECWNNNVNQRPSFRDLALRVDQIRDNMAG
Chain of Recombinant human TYK2 catalytic domain (P29597 871-1187): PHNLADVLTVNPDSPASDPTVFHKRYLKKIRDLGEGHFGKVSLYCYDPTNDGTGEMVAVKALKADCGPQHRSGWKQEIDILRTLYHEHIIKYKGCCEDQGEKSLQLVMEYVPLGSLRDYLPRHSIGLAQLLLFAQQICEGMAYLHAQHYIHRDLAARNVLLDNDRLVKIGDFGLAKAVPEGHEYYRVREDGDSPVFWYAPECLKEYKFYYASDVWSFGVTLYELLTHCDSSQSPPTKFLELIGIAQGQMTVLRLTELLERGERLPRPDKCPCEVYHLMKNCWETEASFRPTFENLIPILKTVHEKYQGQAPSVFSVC

| SMILES | IC50 [1] [nM] | IC50 [2] [nM] | IC50 [3] [nM] | EC50 [4] [nM] | EC50 (MMP13 in SW1353 cells) [nM] | reduction in the TNF release (TNF-alpha release) [%] | Microsomal Stability Human (%) [5] | Microsomal Stability Rat (%) [6] | Papp A→B at 1 h, 10 µM [7] [×10⁻⁶ cm/s] | efflux ratio at 1 h, 10 µM [7] | IC50 [8] [nM] |
| --- | --- | --- | --- | --- | --- | --- | --- | --- | --- | --- | --- |
| O=C(Nc1nc2cccc(-c3ccc(OCc4ccccc4)cc3)n2n1)C1CC1 [Compound 12, N-(5-(4-(benzyloxy)phenyl)-[1,2,4]triazolo[1,5-a]pyridin-2-yl)cyclopropanecarboxamide] | < 100 | < 100 | < 100 | 101 to 500 | > 1000 | > 50 | *** (*** 51-75) | **** (**** 76-100) | 23.4 | 0.82 |  |
| O=C(Nc1nc2cccc(-c3ccc(OCc4cccnc4)cc3)n2n1)C1CC1 [Compound 36, N-(5-(4-(pyridin-3-ylmethoxy)phenyl)-[1,2,4]triazolo[1,5-a]pyridin-2-yl)cyclopropanecarboxamide] |  |  |  | 101 to 500 | 501 to 1000 | > 50 | * (* 0-25) | *** (*** 51-75) |  | 0.89 |  |
| O=C(Nc1nc2cccc(-c3ccc(OCc4ccccn4)cc3)n2n1)C1CC1 [Compound 37, N-(5-(4-(pyridin-2-ylmethoxy)phenyl)-[1,2,4]triazolo[1,5-a]pyridin-2-yl)cyclopropanecarboxamide] |  |  |  | 501 to 1000 | > 1000 | > 50 | *** (*** 51-75) | *** (*** 51-75) |  |  |  |
| Cc1cc(COc2ccc(-c3cccc4nc(NC(=O)C5CC5)nn34)cc2)no1 [Compound 52, N-(5-(4-((5-methylisoxazol-3-yl)methoxy)phenyl)-[1,2,4]triazolo[1,5-a]pyridin-2-yl)cyclopropanecarboxamide] | < 100 | < 100 | 501 to 1000 | 501 to 1000 | > 1000 | > 50 | * (* 0-25) | * (* 0-25) | 31.8 | 1.02 | 501 to 1000 |
| O=C(NCCOc1ccccc1)c1ccc(-c2cccc3nc(NC(=O)C4CC4)nn23)cc1 [Compound 60, 4-(2-(cyclopropanecarboxamido)-[1,2,4]triazolo[1,5-a]pyridin-5-yl)-N-(2-phenoxyethyl)benzamide] | < 100 | < 100 | 101 to 500 | 101 to 500 | 501 to 1000 | > 50 | ** (** 26-50) | * (* 0-25) | 16.9 | 2.55 | 501 to 1000 |
| O=C(Nc1nc2cccc(-c3ccc(C(=O)N4CCC(C(=O)c5ccccc5)CC4)cc3)n2n1)C1CC1 [Compound 74, N-(5-(4-(4-benzoylpiperidine-1-carbonyl)phenyl)-[1,2,4]triazolo[1,5-a]pyridin-2-yl)cyclopropanecarboxamide] | < 100 | 101 to 500 | > 1000 | > 1000 | > 1000 | > 50 | * (* 0-25) | **** (**** 76-100) | 23.3 | 1.14 |  |
| O=C(Nc1nc2cccc(-c3ccc(OCc4ccc(-n5cccn5)cc4)cc3)n2n1)C1CC1 [Compound 125] | < 100 |  | < 100 | > 1000 | > 1000 | > 50 | *** (*** 51-75) | **** (**** 76-100) |  |  |  |
| O=C(Nc1nc2cccc(-c3ccc(C(=O)N4CCC(C(F)(F)F)CC4)cc3)n2n1)C1CC1 [Compound 148, N-(5-(4-(4-(trifluoromethyl)piperidine-1-carbonyl)phenyl)-[1,2,4]triazolo[1,5-a]pyridin-2-yl)cyclopropanecarboxamide] | < 100 |  |  | > 1000 | > 1000 | > 50 | *** (*** 51-75) | ** (** 26-50) |  |  |  |
| Cc1ccc(COc2ccc(-c3cccc4nc(NC(=O)C5CC5)nn34)cc2)cn1 [Compound 197, Cyclopropanecarboxylic acid {5-[4-(6-methyl-pyridin-3-ylmethoxy)-phenyl]-[1,2,4]triazolo[1,5-a]pyridin-2-yl}-amide] | < 100 | < 100 |  | 101 to 500 | > 1000 | > 50 | ** (** 26-50) | *** (*** 51-75) |  |  |  |
| O=C(Nc1nc2cccc(-c3ccc(C(=O)N4CCS(=O)(=O)CC4)cc3)n2n1)C1CC1 [Compound 207, Cyclopropanecarboxylic acid {5-[4-(1,1-dioxo-thiomorpholine-4-carbonyl)-phenyl]-[1,2,4]triazolo[1,5-a]pyridin-2-yl}-amide] | < 100 | < 100 |  | > 1000 | > 1000 | > 50 | **** (**** 76-100) | **** (**** 76-100) | 0.05 | 104 |  |
| CC(=O)N(Cc1ccccn1)c1ccc(-c2cccc3nc(NC(=O)C4CC4)nn23)cc1 [Compound 208, Cyclopropanecarboxylic acid {5-[4-(acetyl-pyridin-2-ylmethyl-amino)-phenyl]-[1,2,4]triazolo[1,5-a]pyridin-2-yl}-amide] | < 100 | < 100 |  | > 1000 | > 1000 | > 50 | *** (*** 51-75) | **** (**** 76-100) |  |  |  |
| O=C(Nc1nc2cccc(-c3ccc(CNc4ncccn4)cc3)n2n1)C1CC1 [Compound 229, Cyclopropanecarboxylic acid {5-[4-(pyrimidin-2-ylaminomethyl)-phenyl]-[1,2,4]triazolo[1,5-a]pyridin-2-yl}-amide] | < 100 | < 100 |  | 501 to 1000 | 501 to 1000 | > 50 | *** (*** 51-75) | *** (*** 51-75) | 25.9 | 1.6 |  |
